Results taken from patent publication US20250042889A1, “3CLPRO PROTEASE INHIBITOR” (SHANGHAI QILU PHARMACEUTICAL RESEARCH AND DEVELOPMENT …, priority 2021, published 2025).

These compounds were tested against SARS-COV-2 3CLpro/Mpro protease (Severe acute respiratory syndrome coronavirus 2 (2019-nCoV) (SARS-CoV-2), UniProt P0DTD1) (assay: Inhibitory effect on SARS-COV-2 3CLpro/Mpro protease by fluorescence resonance energy transfer). Details: activity intervals A-D, read-out: IC50 (nM), Inhibition on SARS-CoV-2 3CLpro/Mpro protease.
Type: biochemical

Q: How did the IC50 turn out when `O=C(c1cncc(Br)c1)N1CCC[C@@H](Nc2c(C(=O)N3CCCCC3)cc(Br)cc2[N+](=O)[O-])C1` [Example 5, (R)-(5-bromo-2-((1-(5-bromonicotinoyl)piperidin-3-yl)amino)-3-nitrophenyl)(piperidin-1-yl)methanone] was run?
A: < 10 nM

Q: With `O=C(c1cc(Br)cc([N+](=O)[O-])c1N[C@@H]1CCCN(C(=O)C2CNCC(F)(F)C2)C1)N1CCCCC1` (stereo partly drawn) [Example 296] as the compound, how does the IC50 read?
A: 10 to 50 nM

Q: Which IC50 does the source give for `O=C(c1cncc(I)c1)N1CC(Nc2c(C(=O)N3CCOCC3)cc(Br)cc2[N+](=O)[O-])C(F)(F)C1` (stereo not drawn) [Example 167] here?
A: 10 to 50 nM

Q: `CNc1cncc(C(=O)N2C[C@H](Nc3c(C(=O)N4C[C@@H](C)O[C@@H](C)C4)cc(Br)cc3[N+](=O)[O-])C[C@H]2C(=O)Nc2cn(C)c(=O)cc2Cl)c1` [Example 410] was tested. Which IC50 did it give?
A: 100 to 200 nM

Q: How did the IC50 turn out when `CNc1cncc(C(=O)N2C[C@H](Nc3c(C(=O)N4C[C@@H](C)O[C@@H](C)C4)cc(Br)cc3[N+](=O)[O-])C[C@@H](O[C@@H]3CCOC3)C2)c1` [Example 448] was run?
A: 10 to 50 nM

Q: For `CNc1cncc(C(=O)N2C[C@H](Nc3c(C(=O)N4C[C@@H](C)O[C@@H](C)C4)cc(Br)cc3[N+](=O)[O-])C[C@H]2C(=O)Nc2cc(C(F)(F)F)ncn2)c1` [Example 436, (2S,4R)-4-((4-bromo-2-((2R,6S)-2,6-dimethylmorpholin-4-carbonyl)-6-nitrophenyl)amino)-1-(5-(methylamino)nicotinoyl)-N-(6-(trifluoromethyl)pyrimidin-4-yl) pyrrolidine-2-formamide], which IC50 is on record?
A: 50 to 100 nM

Q: How did the IC50 turn out when `CNc1cncc(C(=O)N2CCC[C@@H](Nc3c(C(=O)N4CC(F)(F)CC(F)(F)C4)cc(Br)cc3[N+](=O)[O-])C2)c1` [Example 307] was run?
A: 10 to 50 nM

Q: With `CNc1cncc(C(=O)N2C[C@H](Nc3c(C(=O)N4CCCCC4)cc(Br)cc3[N+](=O)[O-])C(C)(O)C2)c1` (stereo partly drawn) [Example 245] as the compound, how does the IC50 read?
A: 50 to 100 nM

Q: `Cc1cc(C(=O)N2CC(Nc3c(C(=O)N4CCN(CC(F)(F)F)CC4)cc(Br)cc3[N+](=O)[O-])C(F)(F)C2)cc(=O)[nH]1` (stereo not drawn) [Example 157] was tested. Which IC50 did it give?
A: 50 to 100 nM

Q: `CNc1cncc(C(=O)N2C[C@H](Nc3c(C(=O)N4CCOC(F)(F)C4)cc(Br)cc3[N+](=O)[O-])[C@@H](OC)C2)c1` [Example 375] was tested. Which IC50 did it give?
A: 10 to 50 nM

Q: For `C[C@@H]1CN(C(=O)c2cc(Br)cc([N+](=O)[O-])c2N[C@@H]2CCCN(C(=O)C3CCCOC3)C2)C[C@H](C)O1` (stereo partly drawn) [Example 145], which IC50 is on record?
A: 10 to 50 nM

Q: `CNc1cncc(C(=O)N2C[C@H](Nc3c(C(=O)N4CCCC(F)(F)C4)cc(Br)cc3[N+](=O)[O-])[C@@H](OC)C2)c1` [Example 374] was tested. Which IC50 did it give?
A: 10 to 50 nM

Q: How did the IC50 turn out when `CNc1cncc(C(=O)N2CCC[C@@H](Nc3c(C(=O)N4CC(F)(F)C(F)(F)C4)cc(Br)cc3[N+](=O)[O-])C2)c1` [Example 273] was run?
A: 10 to 50 nM

Q: For `CNc1cncc(C(=O)N2CC(Nc3c(C(=O)N4CCC(C)(C)CC4)cc(Br)cc3[N+](=O)[O-])C(C)(C)C2)c1` (stereo not drawn) [Example 175], which IC50 is on record?
A: 10 to 50 nM

Q: For `CNc1cncc(C(=O)N2CCC[C@@H](Nc3c(C(=O)N4CCc5ncsc5C4)cc(Br)cc3[N+](=O)[O-])C2)c1` [Example 315], which IC50 is on record?
A: 10 to 50 nM

Q: With `CCn1cc(Br)c(NC(=O)[C@@H]2C[C@@H](Nc3c(C(=O)N4C[C@@H](C)O[C@@H](C)C4)cc(Br)cc3[N+](=O)[O-])CN2C(=O)c2cncc(NC)c2)n1` [Example 409] as the compound, how does the IC50 read?
A: 50 to 100 nM

Q: Which IC50 does the source give for `O=C(c1cncc(C2CC2)c1)N1CCC[C@@H](Nc2c(C(=O)N3CCCCC3)cc(Br)cc2[N+](=O)[O-])C1` [Example 45] here?
A: 10 to 50 nM

Q: Which IC50 does the source give for `CNc1cncc(C(=O)N2C[C@H](Nc3c(C(=O)N4C[C@@H](C)O[C@@H](C)C4)cc(Br)cc3[N+](=O)[O-])C[C@H]2C(=O)Nc2cc(Cl)ncn2)c1` [Example 441, (2S,4R)-4-((4-bromo-2-((2R,6S)-2,6-dimethylmorpholin-4-carbonyl)-6-nitrophenyl)amino)-N-(6-chloropyrimidin-4-yl)-1-(5-(methylamino)nicotinoyl) pyrrolidine-2-formamide] here?
A: 10 to 50 nM

Q: With `Cc1cc(C(=O)N2C[C@H](Nc3c(C(=O)N4CCN(CC(F)(F)F)C(=O)C4)cc(Br)cc3[N+](=O)[O-])C3(CC3)C2)cc(=O)[nH]1` [Example 91] as the compound, how does the IC50 read?
A: 10 to 50 nM

Q: How did the IC50 turn out when `C[C@@H]1CN(C(=O)c2cc(Br)cc([N+](=O)[O-])c2N[C@@H]2CCCN(C(=O)C3CCNC(=O)C3)C2)C[C@H](C)O1` (stereo partly drawn) [Example 18, 4-((R)-3-((4-bromo-2-((2R,6S)-2,6-dimethylmorpholin-4-carbonyl)-6-nitrophenyl)amino)piperidin-1-carbonyl)piperidin-2-one] was run?
A: 100 to 200 nM

Q: For `O=C1CC(C(=O)N2CCC[C@@H](Nc3c(C(=O)N4CCCCC4)cc(Br)cc3[N+](=O)[O-])C2)c2ccccc2N1` (stereo partly drawn) [Example 204], which IC50 is on record?
A: 10 to 50 nM

Q: For `C[C@@H]1CN(C(=O)c2cc(Br)cc(C(F)(F)F)c2N[C@@H]2CCOC[C@@H]2NC(=O)c2cncc3ccccc23)C[C@H](C)O1` [Example 210], which IC50 is on record?
A: 10 to 50 nM

Q: For `O=C(c1cc(Br)cc([N+](=O)[O-])c1N[C@@H]1CCN(C(=O)c2cncc3ccccc23)C1)N1CCCCC1` [Example 12, (R)-(5-bromo-2-((1-(isoquinolin-4-carbonyl)pyrrolidin-3-yl)amino)-3-nitrophenyl)(piperidin-1-yl)methanone], which IC50 is on record?
A: 10 to 50 nM

Q: `CNc1cncc(C(=O)N2CCC[C@@H](Nc3c(C(=O)N4CC[C@H](OC)C4)cc(Br)cc3[N+](=O)[O-])C2)c1` [Example 244] was tested. Which IC50 did it give?
A: 10 to 50 nM

Q: `CNc1cnc(F)c(C(=O)N2C[C@H](Nc3c(C(=O)N4C[C@@H](C)O[C@@H](C)C4)cc(Br)cc3[N+](=O)[O-])[C@@H](OC)C2)c1` [Example 406] was tested. Which IC50 did it give?
A: 50 to 100 nM

Q: `CNc1cncc(C(=O)N2C[C@H](Nc3c(C(=O)N4C[C@@H](C)O[C@@H](C)C4)cc(Br)cc3[N+](=O)[O-])C[C@H]2C(=O)Nc2cccc(Br)c2)c1` [Example 370] was tested. Which IC50 did it give?
A: 50 to 100 nM

Q: How did the IC50 turn out when `COCCN1[C@H](C)CN(C(=O)c2cc(Br)cc([N+](=O)[O-])c2N[C@@H]2CCOC[C@@H]2NC(=O)c2cncc3ccccc23)C[C@@H]1C` [Example 211] was run?
A: 10 to 50 nM

Q: With `CNc1cncc(C(=O)N2C[C@H](Nc3c(C(=O)N4C[C@@H](C)O[C@@H](C)C4)cc(Br)cc3[N+](=O)[O-])C[C@H]2C(=O)N2CC(O)C2)c1` [Example 386] as the compound, how does the IC50 read?
A: 50 to 100 nM

Q: `CNc1cncc(C(=O)N2CCC[C@@H](Nc3c(C(=O)N4CC=CCC4)cc(Br)cc3[N+](=O)[O-])C2)c1` [Example 336, (R)-(5-Bromo-2-((1-(5-(methylamino)nicotinoyl)piperidin-3-yl)amino)-3-nitrophenyl)(3,6-dihydropyridin-1 (2H)-yl) methanone] was tested. Which IC50 did it give?
A: 10 to 50 nM

Q: `CNc1cncc(C(=O)N2C[C@H](Nc3c(C(=O)N4CCCCC4)cc(Br)cc3[N+](=O)[O-])[C@H](OC)C2)c1` [Example 308] was tested. Which IC50 did it give?
A: 10 to 50 nM

Q: How did the IC50 turn out when `C[C@@H]1CN(C(=O)c2cc(Br)cc([N+](=O)[O-])c2N[C@@H]2CCCN(C(=O)[C@H]3CNCC(F)(F)C3)C2)C[C@H](C)O1` [Example 325] was run?
A: 10 to 50 nM

Q: With `O=C(c1cc(Br)cc([N+](=O)[O-])c1N[C@@H]1CCCN(C(=O)c2cc(=O)[nH]c3cc(Cl)ccc23)C1)N1CCOCC1` [Example 117] as the compound, how does the IC50 read?
A: 10 to 50 nM

Q: How did the IC50 turn out when `CNc1cncc(C(=O)N2C[C@H](Nc3c(C(=O)N4C[C@@H](C)O[C@@H](C)C4)cc(Br)cc3[N+](=O)[O-])CC2C(=O)Nc2cc(Cl)n(C)n2)c1` (stereo partly drawn) [Example 407] was run?
A: 50 to 100 nM

Q: How did the IC50 turn out when `CC(C)(C)C1CCN(C(=O)c2cc(Br)cc([N+](=O)[O-])c2N[C@@H]2CCCN(C(=O)[C@@H]3CCNC(=O)C3)C2)CC1` [Example 163] was run?
A: 10 to 50 nM

Q: With `CNc1cncc(C(=O)N2CCC[C@@H](Nc3c(C(=O)N4CCC5(CCNCC5)CC4)cc(Br)cc3[N+](=O)[O-])C2)c1` [Example 272] as the compound, how does the IC50 read?
A: 10 to 50 nM

Q: For `C[C@@H]1CN(C(=O)c2cc(Br)cc([N+](=O)[O-])c2N[C@H]2CN(C(=O)c3cncc(Br)c3)CC2(F)F)C[C@H](C)O1` [Example 203], which IC50 is on record?
A: 10 to 50 nM

Q: How did the IC50 turn out when `CNc1cncc(C(=O)N2C[C@H](Nc3c(C(=O)N4C[C@@H](C)O[C@@H](C)C4)cc(Br)cc3[N+](=O)[O-])C[C@H]2C(=O)Nc2ccccc2)c1` [Example 387] was run?
A: 10 to 50 nM

Q: `CNc1cncc(C(=O)N2C[C@H](Nc3c(C(=O)N4C[C@@H](C)O[C@@H](C)C4)cc(Br)cc3[N+](=O)[O-])C[C@H]2C(=O)NC2CCN(CCOC)CC2(F)F)c1` (single isomer, unassigned) [Compound 453-P1] was tested. Which IC50 did it give?
A: 50 to 100 nM

Q: How did the IC50 turn out when `O=C(N[C@H]1CCCC[C@H]1Nc1c(C(=O)N2CCC(F)(F)CC2)cc(Br)cc1[N+](=O)[O-])c1cc(=O)[nH]c2ccccc12` [Example 16, N-((1S,2R)-2-((4-bromo-2-(4,4-difluoropiperidin-1-carbonyl)-6-nitrophenyl)amino)cyclohexyl)-2-oxo-1,2-dihydroquinolin-4-formamide] was run?
A: 10 to 50 nM

Q: How did the IC50 turn out when `O=C(c1cncc(Br)c1)N1CCC[C@@H](Nc2c(C(=O)N3CCCC3)cc(Br)cc2[N+](=O)[O-])C1` [Example 65] was run?
A: 10 to 50 nM

Q: `O=C(N[C@H]1CCCC[C@H]1Nc1c(C(=O)N2CCNCC2)cc(Br)cc1C(F)(F)F)c1cncc2cc(Cl)ccc12` [Example 143] was tested. Which IC50 did it give?
A: 10 to 50 nM

Q: How did the IC50 turn out when `O=C(c1cc(Br)cc([N+](=O)[O-])c1N[C@@H]1CCCN(C(=O)c2cncc3ccccc23)C1)N1CC2CC2C1` (stereo partly drawn) [Example 15, ((3R)-3-((2-(3-azabicyclo[3.1.0]hexan-3-carbonyl)-4-bromo-6-nitrophenyl)amino)piperidin-1-yl)(isoquinolin-4-yl)methanone] was run?
A: 10 to 50 nM

Q: `C[C@@H]1CN(C(=O)c2cc(Br)cc([N+](=O)[O-])c2N[C@H]2CN(C(=O)c3cncc(Br)c3)CC2(C)C)C[C@@H](C)O1` [Example 220] was tested. Which IC50 did it give?
A: 50 to 100 nM

Q: `CNc1cncc(C(=O)N2CCC[C@@H](Nc3c(C(=O)N4CCc5ccsc5C4)cc(Br)cc3[N+](=O)[O-])C2)c1` [Example 267] was tested. Which IC50 did it give?
A: 10 to 50 nM

Q: For `CNc1cncc(C(=O)N2CCC[C@@H](Nc3c(C(=O)N4CCC(C)(O)CC4)cc(Br)cc3[N+](=O)[O-])C2)c1` [Example 241], which IC50 is on record?
A: 10 to 50 nM

Q: How did the IC50 turn out when `CNc1cncc(C(=O)N2CCC[C@@H](Nc3c(C(=O)N4CCc5sccc5C4)cc(Br)cc3[N+](=O)[O-])C2)c1` [Example 277] was run?
A: 10 to 50 nM

Q: With `CNc1cncc(C(=O)N2C[C@H](Nc3c(C(=O)N4CCCC(F)(F)C4)cc(Br)cc3[N+](=O)[O-])C[C@H]2C(=O)Nc2nn(C)cc2Br)c1` [Example 411] as the compound, how does the IC50 read?
A: 50 to 100 nM

Q: `Cc1cc(C(=O)N2C[C@H](Nc3c(C(=O)N4CCC5(CCC5)CC4)cc(Br)cc3[N+](=O)[O-])C3(CC3)C2)cc(=O)[nH]1` [Example 95] was tested. Which IC50 did it give?
A: 10 to 50 nM
